Columns and labels:
[1] = tested on: human normal mammary epithelial cell lines MCF-10A; experiment: Cytotoxicity in normal mammary epithelial cells (MTT); assay type: cell-based; details: normal mammary epithelial cell line
Text: The MDA-MB-468 cell line was procured from the Cell Bank of the Chinese Academy of Sciences. The MCF-7, MCF-7/ADR, MCF-10A, and MDA-MB-231 cell lines were kindly provided by Professor Xianyi Sha (Fudan University, Shanghai, China). The HUVEC cells were kindly provided by Associate Professor Hulie Zeng (Fudan University, Shanghai, China). The MDA-MB-468, MDA-MB-231, MCF-7, MCF-10A, and HUVEC cells were cultivated in DMEM (Service Biotechnology, China) supplemented with 10% FBS (Capricorn Scientific, Germany) and 1% penicillin-streptomycin (Meilunbio, Dalian, China). For the MCF-7/ADR cells, they were cultured in RPMI-1640 (Service Biotechnology, Wuhan, China), containing 10% FBS and 1% penicillin-streptomycin. […]
Following harvest during logarithmic growth, cells were plated in 96-well culture plates at an initial density of 5000 cells per well. […] The OD value at 570nm was measured using a microplate reader (Thermo Fisher, Waltham, MA, USA). Cell proliferation inhibition was determined using the following formula:Inhibition (%) = [(ODDMSO − ODcompd.)/(ODDMSO − ODblank)] × 100
GraphPad Prism software 9 was used to calculate the IC50 values. […] For instance, in the cell experiment, we recorded the cell viability values at different drug concentrations. […]

hERG potassium channels = target: T1, hERG potassium channels (Homo sapiens, UniProt Q12809); experiment: Inhibition of hERG potassium channels (QPatch patch clamp, CHO-hERG cells); assay type: cell-based
T1 construct: expressed in transfected cells; host or cells: CHO-hERG cells (CHO cells expressing hERG)
Experimental: CHO-hERG cells (2 × 10^6 cells/dish) were seeded in confocal dishes. The compound stock solution was diluted with DMSO to six concentrations: 40.00, 13.33, 4.44, 1.48, 0.49, and 0.16 μM, which was prepared by using the Bravo platform. Both single-cell high-resistance sealing and whole-cell mode formation were automatically performed by the QPatch system (Shanghai Institute of Materia Medica, Shanghai, China). Each concentration was tested on at least two cells (n ≥ 2).

MCF-7/ADR = experiment: Lysosomal and mitochondrial NO levels (Lyso-NO, Mito-NO probes), MCF-7/ADR; assay type: cell-based, human
Experimental: (§1) Lysosomal NO probes (Lyso-NO) and mitochondrial NO probes (Mito-NO), which are specifically used for detecting the nitric oxide levels in lysosomes and mitochondria, respectively, were provided by Professor Weili Zhao (Fudan University, China). Cells (MCF-7 or MCF-7/ADR) were plated in 6-well plates (2 × 10^5 cells/well). After overnight incubation, indicated concentrations of 9e were added to the cells for 4 h. Cells were first treated with 10 μM Lyso-NO or Mito-NO (15 min, 37 °C), then counterstained with Hoechst 33,342 nuclear dye (Beyotime, China; 10 min, 37 °C). Finally, the fluorescence intensity was measured under a fluorescence microscope (Olympus, Tokyo, Japan).

MCF-7 = experiment: Lysosomal and mitochondrial NO levels (Lyso-NO, Mito-NO probes), MCF-7; assay type: cell-based, human; details: 9e
Experimental: as §1

LC3 in MCF-7/ADR = experiment: LC3 immunofluorescence; assay type: cell-based, human; details: 9e 10 nM, 24 hours
Experimental: MCF-7/ADR (1 × 10^5 cells/dish) were seeded in confocal dishes and cultured overnight. After being treated with 9e (20 nM) for 24 h, cells were fixed with 4% paraformaldehyde (Servicebio, Wuhan, China) for 15 min at room temperature. Then, they were washed three times with PBS. Next, cells were blocked with a solution containing 3% BSA (Biofroxx, Einhausen, Germany) and 0.3% Triton X-100 (Beyotime, Shanghai, China) for 1 h at room temperature. The cells were incubated with the primary antibody, which was diluted in 3% BSA and 0.3% Triton X-100, overnight at 4 °C. After three washes with PBS, the cells were incubated with the fluorescent secondary antibody (Alexa Fluor 488 and Alexa Fluor 594, Bioss, Beijing, China) for 1 h at room temperature. Following another three washes with PBS, the cellular DNA was stained with Hoechst 33,342 dye (10 min, 37 °C).

T1 sequence (Q12809 whole entry): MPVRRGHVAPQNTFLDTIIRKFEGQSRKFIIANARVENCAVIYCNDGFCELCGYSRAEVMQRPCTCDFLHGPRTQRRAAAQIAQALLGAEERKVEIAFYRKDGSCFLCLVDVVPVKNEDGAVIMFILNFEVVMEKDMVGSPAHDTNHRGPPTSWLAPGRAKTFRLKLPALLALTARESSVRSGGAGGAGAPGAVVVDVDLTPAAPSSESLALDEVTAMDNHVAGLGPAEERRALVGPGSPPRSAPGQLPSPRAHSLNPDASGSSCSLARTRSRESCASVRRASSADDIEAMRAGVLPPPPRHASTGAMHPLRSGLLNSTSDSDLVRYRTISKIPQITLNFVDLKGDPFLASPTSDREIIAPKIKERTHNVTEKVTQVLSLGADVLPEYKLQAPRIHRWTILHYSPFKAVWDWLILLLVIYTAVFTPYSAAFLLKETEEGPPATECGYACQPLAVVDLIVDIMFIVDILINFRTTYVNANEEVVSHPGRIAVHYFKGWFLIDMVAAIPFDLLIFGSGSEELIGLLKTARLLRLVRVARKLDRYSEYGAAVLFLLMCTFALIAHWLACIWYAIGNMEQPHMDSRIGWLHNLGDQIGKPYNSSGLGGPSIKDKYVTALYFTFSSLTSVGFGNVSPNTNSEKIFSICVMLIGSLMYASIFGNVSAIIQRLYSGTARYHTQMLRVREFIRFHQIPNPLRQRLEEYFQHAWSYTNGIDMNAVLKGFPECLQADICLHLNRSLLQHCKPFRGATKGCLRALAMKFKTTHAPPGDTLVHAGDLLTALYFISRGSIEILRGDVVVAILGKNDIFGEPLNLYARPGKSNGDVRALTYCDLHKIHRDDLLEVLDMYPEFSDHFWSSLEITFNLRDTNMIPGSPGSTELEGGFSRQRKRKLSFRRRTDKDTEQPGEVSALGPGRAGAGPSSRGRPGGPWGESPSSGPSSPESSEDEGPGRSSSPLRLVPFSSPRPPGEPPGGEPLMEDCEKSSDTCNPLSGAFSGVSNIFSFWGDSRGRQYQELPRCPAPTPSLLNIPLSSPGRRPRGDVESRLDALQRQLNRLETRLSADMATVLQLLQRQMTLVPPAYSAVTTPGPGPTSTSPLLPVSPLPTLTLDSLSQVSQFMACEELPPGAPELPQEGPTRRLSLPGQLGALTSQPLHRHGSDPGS

For `COc1ccc(CCC(=O)c2ccc(OCCOc3no[n+]([O-])c3S(=O)(=O)c3ccccc3)cc2OC)cc1` [Compound 9e, 4-(2-(3-methoxy-4-(3-(4-methoxyphenyl)propanoyl)phenoxy)ethoxy)-3-(phenylsulfonyl)-1,2,5-oxadiazole 2-oxide], the IC50 [1] was 13.2 µM, the IC50 (hERG potassium channels) was > 40 µM and the Lyso-NO probe signal (MCF-7/ADR; 10 nM 9e, vs vehicle) was “significant rise”. For the same compound, the Mito-NO probe signal (MCF-7/ADR; 9e, vs control) was “no difference”, the “Lyso-NO and Mito-NO probe fluorescence intensity” value (MCF-7) was “no increase in fluorescence intensity” and the “fluorescence intensity of LC3” value (LC3 in MCF-7/ADR) was “significantly increased”.
